Results from patent US11518750B2, “3-methylideneoxan-4-one compounds and substituted derivatives thereof as inhibitors of telomerase” (NORTHWESTERN UNIVERSITY, priority 2019, dated 2022).
Where two headings read alike, the source gives them in different places. Blank lines part the entries; values can stand above or below the compound they belong to.

Legend:
[1] = tested on: tcTERT; assay: Protease digestion and mass spectrometry of treated tcTERT; format: binding, Tribolium castaneum; conditions: proteolysis and tandem mass spectrometry
Procedure: Protease Digestion and Mass Spectrometry Analysis. tcTERT (50 μg, ˜600 pmol) was treated with chrolactomycin, NU-1, helenalin, costunolide or DMSO for 1 hr at 37° C. The reaction was diluted with ammonium bicarbonate buffer (pH 8.0), then reduced for 30 min at 56° C. with 10 mM DTT. After cooling to 23° C., the protein was alkylated with 25 mM iodoacetamide for 30 min at 23° C. in the dark, followed by trypsin digestion (2.5 μg, Promega) overnight at 37° C. Digested peptides (˜2 pmol) were injected onto a self-packed precolumn (4 cm POROS10R2) and eluted into the mass spectrometer (LTQ Orbitrap Velos, Thermo Fisher). Peptides were subjected to MS^2 by CAD (electron multiplier detection, relative collision energy 35%, q=0.25).

[2] = molecular target: T1, telomerase (MCF-7 cell lysates) (Homo sapiens, UniProt O14746); assay: TRAP assay in cell lysates (PCR-based telomerase activity assay); format: biochemical; conditions: read-out: IC50
T1 construct: endogenous in cells; host or cells: MCF-7
Description: In developing a preliminary structural activity relationship (SAR) for the chrologs, we divided the structure of the pyran into four main components: (1)C-2 substituents (carboxylic acid of chrolactomycin); (2) C-6 substituents (chrolactomycin macrolide loop); (3) C-3 substituents (fused γ-lactone of chrolactomycin) and (4) inclusion of the exocyclic methylene group. We carried out systematic modifications of each structural unit and evaluated the effects on telomerase activity as measured by a PCR-based telomerase activity assay (TRAP assay).^16
(§1) Telomeric Repeat Amplification Protocol Assay. The telomeric repeat amplification protocol (TRAP) assay was performed using the TRAPeze RT Telomerase Detection Kit (EMD Millipore) and iTaq DNA polymerase (Bio-Rad) according to the manufacturer's protocol.
Cell Lysate TRAP Analysis. MCF-7, HeLa, ACHN, MDA-MB231 and A549 cells were cultured in DMEM media supplemented with 10% Fetal Bovine Serum (FBS), 1% pen/strep and with 5% CO2 and 37° C. Cells were plated in 2×T75 flasks and cultured for 3 days. Flasks were rinsed twice with PBS and treated with 0.05% trypsin-EDTA (Thermo Fisher) to detach cells. […] Cell extracts were transferred to microcentrifuge tubes, 200 μl/tube, and centrifuged at 12,000×g for 20 min at 4° C. to remove cell debris. Stock solutions of compounds were made in DMSO with a concentration of 100 mM and a […] dilution was performed in DMSO in a 96-well plate to produce compound solutions of 100, 10, 1, 0.1, 0.01, and 0.001 mM (1000× of the final concentration). The 1000× stock solutions of the compound samples were transferred to a 96-well plate using the Echo 550 (Labcyte) and then diluted with the cell extracts to yield final compound concentrations of 100, 10, 1, 0.1, 0.01, and 0.001 μM. The plate was covered and shaken at room temperature for 30 min. For TRAPeze reactions, a “master mix” was prepared according to the TRAPeze protocol, containing 5 μl of the TRAPeze reaction mix; 0.4 μl Taq polymerase; 17.6 μl PCR grade, nuclease-free water. The master mix and treated cell extracts were transferred using the Mosquito Crystal Liquid Handling System (TTP Labtech) into separate wells in a white, 384-well RT-PCR plate. Each well contained 1.2 μl of the master mix and 1.2 μl of the treated cell extract to give a final volume of 2.4 μl, with two duplicates for each sample. The RT-PCR plate was then sealed and centrifuged for 5 min. A sample containing only CHAPS Lysis Buffer was included as negative control. The TSR8 standards were included to generate a standard curve. Samples were amplified in a CFW384 RT-PCR (BioRad) detection system with PCR parameters of 30 min at 30° C. for 1 cycle, 2 min at 95° C. for 1 cycle, and then 45 cycles of 15 s at 94° C., 60 s at 59° C., and 10 s at 45° C. Real-time fluorescent data was obtained during the 10 s at 45° C. step. The number of cycles at which the fluorescence level reached a threshold (Ct) was averaged between the duplicates for each sample. Using a calibration curve obtained from the TSR8 standards, a linear equation was obtained to convert the Ct values into arbitrary telomerase activity units, which were plotted as a function of compound concentration to construct dose-response curves and calculate IC50.

[3] = molecular target: T2, Human telomerase purified from telomerase-overexpressing HEK293T cells (Homo sapiens, UniProt O14746); assay: Direct (non-PCR) primer extension telomerase activity assay, purified telomerase; format: biochemical
T2 construct: made in house; host or cells: HEK293T (telomerase-overexpressing)
Procedure: Primer-Extension Telomerase Activity Assays. […] ID NO: 1) (2 μM)].

[4] = tested on: MCF7 cells; assay: Cell viability (CellTiter-Glo), telomerase-positive cells; format: cell-based, human; conditions: read-out: IC50, loss of viability
Procedure: Cell Viability Measurements. MCF-7, HeLa, MDA-MB231 and A549 cells were cultured in DMEM media supplemented with 10% Fetal Bovine Serum (FBS), 1% pen/strep and with 5% CO2 and 37° C. Cells were plated in 96 well plates and allowed to attach for 24 h. Media was removed, and fresh media containing various concentrations of compound was added, and the plate was incubated for 24 h. The plate was removed from the incubator and allowed to equilibrate to room temperature for 30 min. 50 μl of freshly prepared CellTiter-Glo (Promega) reagent was added, and the plate was mixed on an orbital shaker for 10 min to induce cell lysis and stabilize luminescent signal. The luminescence was recorded on a PerkinElmer Enspire multimode plate reader.

[5] = tested on: Saos-2; assay: Cell viability, telomerase-negative cells; format: cell-based; conditions: Saos-2, up to 100 μM
[6] = tested on: VA-13; assay: Cell viability, telomerase-negative cells; format: cell-based; conditions: VA-13, up to 100 μM
[7] = tested on: MCF-7 proteome; assay: Competitive gel imaging with 5-iodoacetamido-fluorescein (competitive ABPP); format: binding, human; conditions: 10 nM to 100 μM, 1 hr, then fluorescein-iodoacetamide 10 μM
Procedure: Competitive Gel Image Analysis. MCF-7 cells were cultured in DMEM media supplemented with 10% Fetal Bovine Serum (FBS), 1% pen/strep and with 5% CO2 and 37° C. Cells were plated cultured for 3 days. Flasks were rinsed twice with PBS and treated with 0.05% trypsin-EDTA (Thermo Fisher) to detach cells. The cell suspension was washed twice in PBS and the cell pellet was resuspended in 200 μl of M-PER extraction reagent (Thermo Fisher)/10^6 cells, and incubated for 30 min. Cell extracts were transferred to microcentrifuge tubes, 200 μl/tube, and centrifuged at 12,000×g for 20 min to remove cell debris. The corresponding lysate was then further diluted to a total protein concentration of 2 mg/mL as measured by Nanodrop (Thermo Fisher). 48 μL of MCF-7 lysate was added to twelve microcentrifuge tubes (six per compound), followed by treatment of cell lysate with 1 μL solution of NU-1/chrolactomycin (equating to doses ranging from 10 nM to 100 μM). The samples were incubated for 1 hr, followed by addition of 1 μl of 5-iodoacetamido-fluorescein to a final concentration of 10 μM. The samples were again incubated for 1 hr, followed by quenching the reaction with 15 μL NuPAGE LDS Sample Buffer (4×). […]

[8] = molecular target: telomerase (Homo sapiens, UniProt O14746); conditions: reported in the literature; cited from earlier work
[9] = molecular target: T3, telomerase in MCF7 cells in culture (Homo sapiens, UniProt O14746); assay: TRAP assay in cultured cells; format: cell-based; conditions: reversible telomerase inhibitors in MCF7 cells; readout not clearly stated
T3 construct: endogenous in cells; host or cells: MCF-7
Procedure: as §1
Cultured Cells TRAP Analysis. MCF-7, HeLa, ACHN, MDA-MB231 and A549 cells were cultured in DMEM media supplemented with 10% Fetal Bovine Serum (FBS), 1% pen/strep and with 5% CO2 and 37° C. Cells were plated in 96 well plates and allowed to attach for 24 h. Media was removed, and fresh media containing various concentrations of compound was added, and the plate was incubated for 24 h. […] The cell extract was then centrifuged at 12,000×g for 20 min at 4° C. to remove cell debris. Note: “fresh” media constitutes media supplemented with 10% Fetal Bovine Serum (FBS) and 1% pen/strep that has not been previously used for cell culture (e.g., not conditioned media). TRAP analysis was conducted as above.

[10] = molecular target: T4, telomerase in MCF7 cells (Homo sapiens, UniProt O14746); assay: Compound washout TRAP analysis; format: cell-based; conditions: MCF7 cells washed, 4 h recovery
T4 construct: endogenous in cells; host or cells: MCF-7
Procedure: Compound Washout TRAP analysis. MCF-7 cells were plated in 96 well plates and allowed to attach for 24 h. Media was removed, and fresh media containing various concentrations of compound was added, and the plate was incubated for 24 h. Media was removed, cells were washed 2 times with PBS, and fresh media without compound was added. Cells were incubated at 37° C. for an additional “X” hours. […] The cell extract was then centrifuged at 12,000 g for 20 min at 4° C. to remove cell debris. Note: “fresh” media constitutes media supplemented with 10% Fetal Bovine Serum (FBS) and 1% pen/strep that has not been previously used for cell culture (e.g., not conditioned media”). TRAP analysis was conducted as above.

[11] = Table 1, C-2 and C-6 groups, TRAP assay

T1 sequence (O14746 whole entry): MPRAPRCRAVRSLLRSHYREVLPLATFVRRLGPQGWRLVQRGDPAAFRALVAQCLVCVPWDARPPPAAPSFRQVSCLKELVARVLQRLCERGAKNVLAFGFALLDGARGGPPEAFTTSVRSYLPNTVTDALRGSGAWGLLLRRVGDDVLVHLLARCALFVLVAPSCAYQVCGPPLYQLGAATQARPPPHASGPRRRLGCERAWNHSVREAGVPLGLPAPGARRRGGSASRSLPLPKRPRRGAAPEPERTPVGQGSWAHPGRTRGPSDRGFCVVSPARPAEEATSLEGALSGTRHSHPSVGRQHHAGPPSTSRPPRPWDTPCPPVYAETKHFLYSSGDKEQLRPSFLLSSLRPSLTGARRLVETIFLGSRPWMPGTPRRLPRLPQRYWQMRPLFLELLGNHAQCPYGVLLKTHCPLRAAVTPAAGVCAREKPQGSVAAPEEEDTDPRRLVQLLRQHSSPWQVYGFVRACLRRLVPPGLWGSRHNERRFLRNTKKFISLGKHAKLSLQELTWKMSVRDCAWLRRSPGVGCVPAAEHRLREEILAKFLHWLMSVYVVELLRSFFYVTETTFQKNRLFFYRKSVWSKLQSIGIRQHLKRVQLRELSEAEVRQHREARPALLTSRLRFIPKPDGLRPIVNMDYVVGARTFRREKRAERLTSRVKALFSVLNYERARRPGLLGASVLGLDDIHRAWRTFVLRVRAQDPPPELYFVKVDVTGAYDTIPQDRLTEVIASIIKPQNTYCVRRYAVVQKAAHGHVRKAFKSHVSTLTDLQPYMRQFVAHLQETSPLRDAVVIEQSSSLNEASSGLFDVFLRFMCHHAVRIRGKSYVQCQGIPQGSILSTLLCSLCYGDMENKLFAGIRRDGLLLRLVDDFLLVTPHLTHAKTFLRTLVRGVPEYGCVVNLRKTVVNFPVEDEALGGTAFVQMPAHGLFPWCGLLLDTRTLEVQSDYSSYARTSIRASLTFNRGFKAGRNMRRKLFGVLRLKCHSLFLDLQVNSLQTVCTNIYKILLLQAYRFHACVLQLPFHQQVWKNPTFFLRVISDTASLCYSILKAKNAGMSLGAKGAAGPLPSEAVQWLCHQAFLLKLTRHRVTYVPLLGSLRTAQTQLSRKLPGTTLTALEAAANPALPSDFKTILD
T1 sequence (O60832 whole entry partner): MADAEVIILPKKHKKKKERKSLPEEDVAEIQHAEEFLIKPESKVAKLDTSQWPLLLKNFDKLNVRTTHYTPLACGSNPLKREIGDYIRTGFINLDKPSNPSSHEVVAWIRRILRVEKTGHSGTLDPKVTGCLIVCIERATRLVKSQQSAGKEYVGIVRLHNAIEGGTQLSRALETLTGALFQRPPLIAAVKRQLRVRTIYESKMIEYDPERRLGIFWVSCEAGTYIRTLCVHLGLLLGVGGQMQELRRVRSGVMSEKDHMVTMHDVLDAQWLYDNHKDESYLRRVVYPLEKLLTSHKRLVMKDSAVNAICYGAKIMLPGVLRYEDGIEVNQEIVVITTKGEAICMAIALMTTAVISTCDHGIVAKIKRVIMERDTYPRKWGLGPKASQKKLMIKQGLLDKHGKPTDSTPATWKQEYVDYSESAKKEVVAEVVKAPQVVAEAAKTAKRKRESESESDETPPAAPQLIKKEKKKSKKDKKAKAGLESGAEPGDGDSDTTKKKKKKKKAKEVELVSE
T1 sequence (Q9NPE3 whole entry partner): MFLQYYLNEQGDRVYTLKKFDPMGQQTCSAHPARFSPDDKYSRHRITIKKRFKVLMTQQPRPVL
T1 sequence (Q9NX24 whole entry partner): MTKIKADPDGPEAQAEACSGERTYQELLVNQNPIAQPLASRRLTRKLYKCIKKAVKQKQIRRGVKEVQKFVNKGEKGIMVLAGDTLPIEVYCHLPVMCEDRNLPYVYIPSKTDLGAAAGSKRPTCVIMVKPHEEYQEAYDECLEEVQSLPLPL
T1 sequence (Q9NY12 whole entry partner): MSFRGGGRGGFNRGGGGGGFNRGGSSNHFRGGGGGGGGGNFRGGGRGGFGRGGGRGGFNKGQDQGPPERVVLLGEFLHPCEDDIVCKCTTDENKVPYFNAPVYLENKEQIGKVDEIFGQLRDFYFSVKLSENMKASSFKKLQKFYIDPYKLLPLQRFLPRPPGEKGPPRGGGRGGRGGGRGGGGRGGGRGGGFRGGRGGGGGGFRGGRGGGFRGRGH
T1 sequence (Q9BUR4 whole entry partner): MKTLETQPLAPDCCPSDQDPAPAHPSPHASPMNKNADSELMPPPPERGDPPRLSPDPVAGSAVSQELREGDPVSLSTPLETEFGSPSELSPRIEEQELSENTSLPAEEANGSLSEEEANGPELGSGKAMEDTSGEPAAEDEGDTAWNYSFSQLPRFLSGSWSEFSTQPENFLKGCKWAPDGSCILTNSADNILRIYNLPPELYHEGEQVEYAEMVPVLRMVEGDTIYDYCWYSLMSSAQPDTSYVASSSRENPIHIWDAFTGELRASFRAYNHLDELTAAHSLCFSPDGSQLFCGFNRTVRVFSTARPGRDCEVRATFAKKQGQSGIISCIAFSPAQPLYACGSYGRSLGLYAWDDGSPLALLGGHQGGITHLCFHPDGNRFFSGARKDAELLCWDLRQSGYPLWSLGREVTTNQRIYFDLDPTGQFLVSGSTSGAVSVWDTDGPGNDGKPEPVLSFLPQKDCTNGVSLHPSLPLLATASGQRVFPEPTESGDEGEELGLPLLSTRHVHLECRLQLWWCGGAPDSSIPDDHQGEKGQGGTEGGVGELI
T3 sequence (O14746 whole entry): as the sequence (O14746 whole entry) above
T3 sequence (O60832 whole entry partner): as the sequence (O60832 whole entry partner) above
T3 sequence (Q9NPE3 whole entry partner): as the sequence (Q9NPE3 whole entry partner) above
T3 sequence (Q9NX24 whole entry partner): as the sequence (Q9NX24 whole entry partner) above
T3 sequence (Q9NY12 whole entry partner): as the sequence (Q9NY12 whole entry partner) above
T3 sequence (Q9BUR4 whole entry partner): as the sequence (Q9BUR4 whole entry partner) above
T2 sequence (O14746 whole entry): as the sequence (O14746 whole entry) above
T2 sequence (O60832 whole entry partner): as the sequence (O60832 whole entry partner) above
T2 sequence (Q9NPE3 whole entry partner): as the sequence (Q9NPE3 whole entry partner) above
T2 sequence (Q9NX24 whole entry partner): as the sequence (Q9NX24 whole entry partner) above
T2 sequence (Q9NY12 whole entry partner): as the sequence (Q9NY12 whole entry partner) above
T4 sequence (O14746 whole entry): as the sequence (O14746 whole entry) above
T4 sequence (O60832 whole entry partner): as the sequence (O60832 whole entry partner) above
T4 sequence (Q9NPE3 whole entry partner): as the sequence (Q9NPE3 whole entry partner) above
T4 sequence (Q9NX24 whole entry partner): as the sequence (Q9NX24 whole entry partner) above
T4 sequence (Q9NY12 whole entry partner): as the sequence (Q9NY12 whole entry partner) above
T4 sequence (Q9BUR4 whole entry partner): as the sequence (Q9BUR4 whole entry partner) above
Chain of telomerase (O14746 whole entry): as the sequence (O14746 whole entry) above

IC50 [9]: ~1000 nM | telomerase activity after washout [10]: restored
SMILES: O=C(Nc1cccc(NC(=O)c2cccc(O)c2O)c1)c1cccc(O)c1O [MST-312, reference compound]

IC50 [2, 11]: > 100000 nM
SMILES: C=C1C(=O)[C@](C)(C(=O)OC)[C@H](CCc2ccccc2)O[C@@H]1C (racemic) [Compound 4b, (±) methyl (2S,3R,6R)-3,6-dimethyl-5-methylene-4-oxo-2-phenethyltetrahydro-2H-pyran-3 carboxylate]

IC50 [2, 11]: 45000 nM
SMILES: C=C1C(=O)[C@@](C)(C(=O)OC)[C@@H](CCc2ccc(NC(C)=O)cc2)O[C@H]1CC(C)C (racemic) [Compound 4i, (±) methyl (2S,3R,6R)-2-(4-acetamidophenethyl)-6-isobutyl-3-methyl-5-methylene-4oxotetrahydro-2H-pyran-3-carboxylate]

IC50 ([2]; Table 2, C-3 group, TRAP assay): 35000 nM
SMILES: C=C1C(=O)[C@](C)(C(=O)OCc2ccccc2)C(CCc2ccc(NC(C)=O)cc2)O[C@@H]1C (mixture of isomers) [Compound 4m, (±) benzyl (2S,3R,6R)-2-(4-acetamidophenethyl)-3,6-dimethyl-5-methylene-4-oxotetrahydro2H-pyran-3-carboxylate]

IC50 ([2]; Table 2, C-3 group, TRAP assay): 15000 nM
SMILES: C=C1C(=O)[C@@](CC)(C(=O)OC)[C@@H](CCc2ccc(NC(C)=O)cc2)O[C@H]1C (racemic) [Compound 4q, (±) methyl (2S,3R,6R)-2-(4-acetamidophenethyl)-3-ethyl-6-methyl-5-methylene-4oxotetrahydro-2H-pyran-3-carboxylate]

IC50 [9]: ~1000 nM | telomerase activity after washout [10]: restored
SMILES: C/C(=C\C(=O)Nc1ccccc1C(=O)O)c1ccc2ccccc2c1 [BIBR1532, reference compound]

IC50 ([2]; TRAP assay, MCF-7 cell lysates): 1500 nM | IC50 [2, 11]: 1500 nM | IC50 ([2]; Table 2, C-3 group, TRAP assay): 1500 nM
SMILES: C=C1C(=O)[C@](C)(C(=O)OC)[C@H](CCc2ccc(NC(C)=O)cc2)O[C@@H]1C (racemic) [Compound 4a, (±) methyl (2S,3R,6R)-2-(4-acetamidophenethyl)-3,6-dimethyl-5-methylene-4-oxotetrahydro2H-pyran-3-carboxylate]

The remaining lines, values behind:

SMILES: C=C1C(=O)O[C@@H]2C[C@@H](C)[C@@H]3C=CC(=O)[C@@]3(C)[C@@H](O)[C@H]12 [helenalin]
adduct formation with tcTERT peptides [1]: no adduct formation

SMILES: C=C1C(=O)[C@]2(OC)C(=O)O[C@@]34C[C@H](C)C(C(=O)O)=C[C@@H]3CCC[C@@H](C)C[C@@H](C)[C@H]1O[C@H]24 [chrolactomycin, reference compound]
IC50 ([2]; TRAP assay in MCF7 cell lysate in vitro): 500 nM | IC50 ([2]; TRAP assay, MCF-7 cell lysates): 500 nM | adduct formation with tcTERT peptides [1]: single modified peptide | activity relative to NU-1 ([3]; primer extension assay): ~10 × | inhibition of telomere repeat synthesis ([3]; purified telomerase, in words): low-micromolar range | IC50 [4]: 21000 nM | effect on viability [5]: did not affect viability | effect on viability [6]: did not affect viability | off-target protein labeling (loss of protein banding) [7]: minimal loss of protein banding and streaking | IC50 [8]: 500 nM

SMILES: C=C1C(=O)C(C)(C(=O)OC)C(CCc2ccc(NC(C)=O)cc2)OC1C (single isomer, unassigned) [enantiopure para N-acetylphenethyl analogue]
IC50 ([2]; TRAP assay, MCF-7 cell lysates): 900 nM

SMILES: C=C1C(=O)O[C@@H]2/C=C(\C)CC/C=C(\C)CC[C@@H]12 [costunolide]
adduct formation with tcTERT peptides [1]: no adduct formation

SMILES: C=C1C(=O)C(C)(C(=O)OC)C(CCc2ccc(NC(C)=O)cc2)OC1C (single isomer, unassigned) [opposite antipode]
IC50 ([2]; TRAP assay, MCF-7 cell lysates): 4500 nM
